“And” between values parts separate entries of the source, which are not always exact repeats. Equal values may be shown once. Peptide text beside a SMILES is read from it. * marks the point of attachment. Fmoc = O=C(OCC1c2ccccc2-c2ccccc21)*

The target in test [1] is T1, legumain (Mus musculus, UniProt O89017).
T1 construct: purchased Novus Biologicals
T1 sequence (O89017 18-325 limits assumed): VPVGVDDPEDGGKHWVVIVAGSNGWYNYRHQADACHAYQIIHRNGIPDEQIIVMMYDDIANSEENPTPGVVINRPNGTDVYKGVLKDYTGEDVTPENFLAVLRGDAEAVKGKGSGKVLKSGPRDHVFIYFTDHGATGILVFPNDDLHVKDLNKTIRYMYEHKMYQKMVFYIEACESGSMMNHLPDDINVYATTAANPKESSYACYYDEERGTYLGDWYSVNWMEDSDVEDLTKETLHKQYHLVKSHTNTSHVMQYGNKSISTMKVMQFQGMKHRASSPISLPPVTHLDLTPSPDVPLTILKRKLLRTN
Kind of test: Legumain assay with peptide 1 and Thioflavin T in buffer. Type of test: biochemical. As for the experimental part:
Legumain activation. To activate legumain, 5 μL of prolegumain solution (0.5 mg/mL in Tris buffer containing 10% glycerol) was mixed with 20 μL of activation buffer (50 mM Sodium Acetate, 100 mM NaCl, pH 4.0) and incubated at 37° C. for 2 h. It was then diluted in 225 μL of legumain assay buffer (50 mM MES, 250 mM NaCl, pH 5) to give a final legumain concentration of 10 μg/mL and immediately used in the assay.
Legumain assay. In a typical assay, peptide 1 was first dissolved in ultrapure water containing 25% DMSO at a peptide concentration of 10 mg/mL. It was then diluted in phosphate-buffered saline (PBS, pH 7.4, 10 mM) to give a peptide concentration of 2 mg/mL. Next, 50 μL of the peptide solution was mixed with 50 μL of MES buffer (50 mM MES, 250 mM NaCl, pH 5) containing activated legumain at different concentrations (0-2000 ng/mL) in a 96 well plate and the plate was incubated at 37° C. for 2 h. Note that the final peptide concentration was 1 mg/mL and final legumain concentrations were between 0 and 1000 ng/mL. Finally, 10 μL of ThT solution (1 mM, in ultrapure water) was added to each well, and ThT fluorescence was measured using a Spark 20M microplate reader (Tecan) after 15-30 min incubation at room temperature.
In the peptide concentration experiment, appropriate amounts of peptide 1 stock solution (10 mg/mL) were diluted in PBS and mixed with the MES buffer containing legumain, as described above, to give the final peptide concentrations between 0.05 and 1 mg/mL in the assay. In kinetic studies, ThT solution was mixed with the peptide immediately before the addition of activated legumain, and the plate was incubated in a Spark 20M microplate reader (Tecan) at 37° C. for 3 hours, and ThT fluorescence was recorded every 4 minutes. For the inhibitor experiment, the legumain inhibitor, RR-11a, was first dissolved in DMSO (1 mM), and appropriate amounts of inhibitor were incubated with legumain for about 1.0 hour at room temperature in 96 well plates. Finally, the legumain solutions incubated with different amounts of inhibitor were mixed with the peptide 1 solution, and the assay was performed as described above. For the experiments in plasma, 10 μL or 20 μL of PBS in the wells were replaced with human plasma to achieve final plasma concentrations of 10% and 20%, respectively.

The target of test [2] is T1, legumain. Kind of test: LC-MS analysis of hydrolysis of peptide 1 by legumain. Particulars: peptide about 0.5 mg/mL, legumain about 1000 ng/mL, 37° C., about 2 hours. Type of test: biochemical. As for the experimental part:
Fluorescence spectroscopy. For fluorescence measurements, peptide 2 was dissolved in DMSO to give a peptide concentration of 10 mg/mL, and it was 5× diluted in DMSO or the assay buffer and fluorescence spectra of the Fmoc groups were recorded using an FP-8500 spectrofluorometer (JASCO, Inc). Liquid chromatography mass spectrometry (LC-MS) measurements. LC-MS measurements were carried using an Acquity UPLC System (Waters) equipped with a SQ Detector 2 (Waters) and a C18 column (Waters). For LC-MS measurement, peptide 1 was first dissolved in ultrapure water containing 25% DMSO and diluted in PBS and MES mixture with or without legumain as described above. Final peptide concentration was about 0.5 mg/mL and legumain concentrations were about 0 ng/mL and about 1000 ng/mL. Samples were incubated at 37° C. for about 2 hours, diluted in HPLC grade water and acetonitrile mixture (1:1) containing 1% formic acid, and loaded to the column.

On to `C[C@H](NC(=O)[C@H](C)NC(=O)[C@H](CCC(=O)O)NC(=O)[C@H](Cc1ccccc1)NC(=O)[C@H](CCCCN)NC(=O)[C@H](Cc1ccccc1)NC(=O)OCC1c2ccccc2-c2ccccc21)C(=O)N[C@@H](CC(N)=O)C(=O)NCC(=O)N[C@@H](CCC(=O)O)C(=O)N[C@@H](CCC(=O)O)C(=O)NCC(=O)N[C@@H](CO)C(=O)NCC(=O)N[C@@H](CCC(=O)O)C(=O)N[C@@H](CCC(=O)O)C(=O)O` [peptide 1] (Fmoc-FKFEAANGEEGSGEE-OH; C-terminus assumed), for which, in test [1] (1000 ng/mL legumain), the “fluorescence intensity at 24 hours compared with the intensity at two hours” value is “about 2.5”. Also, the “enhancement in the ThT emission intensity” value in test [1] (1000 ng/mL legumain, about two hours, peptide 1 1 mg/mL, ThT 90 μM) is recorded as “about 32 fold”. For the same compound, the “enhancement in ThT emission” value in test [1] (1 mg/mL peptide concentration, legumain 500 ng/mL) is 28 fold. Also, the fluorescence enhancement entry in test [1] (legumain 10.0 ng/mL, about two hours, ThT 90 μM) is “about 1.3 fold”. Besides, the fluorescence enhancement entry in test [1] (legumain 25.0 ng/mL, about two hours, ThT 90 μM) is “about 3 fold”. For the same compound, in test [1] (legumain, buffer), the “limit of detection (LOD)” value was “about 12 ng/mL and 0.21 nM”; the “limit of quantification (LOQ)” value is “about 25 ng/mL and 0.45 nM”. Also, the “enhancement in the ThT fluorescence in the absence of legumain” value in test [1] (no legumain, up to the highest peptide concentration (1.0 mg/mL)) was “no significant enhancement”. Also, the “enhancement in the ThT emission” value in test [1] (peptide 1 1.0 mg/mL, ThT 90 μM, no legumain) was 1.4 fold. Moreover, the “ThT emission intensity increase” value in test [1] (peptide concentration below 0.25 mg/mL, legumain 500 ng/mL) was 1.3-1.4 fold. In test [2], the “peptide cleaved by legumain (LC-MS)” value is given as ~30%.
